Data on two compounds can be found in ChEMBL document CHEMBL1129878, “Synthesis of 5-epiaragusterol A” (Bioorg Med Chem Lett, 1997).

The test system of one assay is KB. Description: The compound was tested for the inhibitory activity against the proliferation of KB cells. Type of assay: functional, cell-based. As to conditions: Homo sapiens.
Another assay deals with L1210. Description: The compound was tested in vivo for the potent antitumor activity toward L1210 leukemia in mice at the dose of 1.6 (mg/kg). The assay is classed as functional, Mus musculus.

One may read the IC50 as the midpoint of a concentration-inhibition curve. A lower IC50 goes with greater potency. Usually T/C stands for the result in the treated group divided by that in the control group, in per cent.

≈ marks a conversion by molar mass, not a printed value.

`C[C@@H]1C[C@H]1[C@H](C)C[C@@H](O)[C@@]1([C@H]2CC[C@H]3[C@@H]4CC[C@@H]5CC(=O)CC[C@]5(C)[C@H]4C[C@@H](O)[C@]23C)CO1` [5-EPIARAGUSTEROL A] returned an IC50 with KB of 0.041 µg/mL (≈ 0.0894 µM).

The compound `C[C@@H]1C[C@H]1[C@H](C)C[C@@H](O)[C@@]1([C@H]2CC[C@H]3[C@@H]4CC[C@H]5CC(=O)CC[C@]5(C)[C@H]4C[C@@H](O)[C@]23C)CO1` [ARAGUSTEROL A] returned an IC50 in the assay with KB of 0.042 µg/mL (≈ 0.0916 µM). The compound further yielded a T/C with L1210 of 220%.
